Here are results for 4 compounds from ChEMBL document CHEMBL4261615, “Design, synthesis, biological evaluation and cellular imaging of imidazo[4,5-b]pyridine derivatives as potent and selective TAM inhibitors” (Bioorg Med Chem, 2018).

In experiment [1] the target is Glycogen synthase kinase-3 beta (Homo sapiens) (UniProt P49841). Nature of the experiment: Binding affinity to full length wild type human GSK3beta (M1 to T433 residues) expressed in mammalian expression system assessed as fraction of unbound kinase to substrate at 1 uM after 1 hr by KinomeScan assay.
For experiment [2], the target named is Cyclin-dependent kinase 2 (Homo sapiens) (UniProt P24941). Nature of the experiment: Binding affinity to wild-type human full length CDK2 (M1 to L298 residues) expressed in bacterial expression system assessed as fraction of unbound kinase to substrate at 0.1 uM after 1 hr by KinomeScan assay.
In experiment [3] the target is Hepatocyte growth factor receptor (Homo sapiens) (UniProt P08581). The experiment is described as follows: Binding affinity to human MET (D1010 to S1367 residues) expressed in bacterial expression system assessed as fraction of unbound kinase to substrate at 0.1 uM after 1 hr by KinomeScan assay.
In experiment [4] the target is Glycogen synthase kinase-3 beta (Homo sapiens) (UniProt P49841). The experiment is described as follows: Binding affinity to full length wild type human GSK3beta (M1 to T433 residues) expressed in mammalian expression system assessed as fraction of unbound kinase to substrate at 0.1 uM after 1 hr by KinomeScan assay.
Experiment [5] deals with T1, Tyrosine-protein kinase receptor UFO (Homo sapiens, UniProt P30530).
T1 sequence (P30530 whole entry): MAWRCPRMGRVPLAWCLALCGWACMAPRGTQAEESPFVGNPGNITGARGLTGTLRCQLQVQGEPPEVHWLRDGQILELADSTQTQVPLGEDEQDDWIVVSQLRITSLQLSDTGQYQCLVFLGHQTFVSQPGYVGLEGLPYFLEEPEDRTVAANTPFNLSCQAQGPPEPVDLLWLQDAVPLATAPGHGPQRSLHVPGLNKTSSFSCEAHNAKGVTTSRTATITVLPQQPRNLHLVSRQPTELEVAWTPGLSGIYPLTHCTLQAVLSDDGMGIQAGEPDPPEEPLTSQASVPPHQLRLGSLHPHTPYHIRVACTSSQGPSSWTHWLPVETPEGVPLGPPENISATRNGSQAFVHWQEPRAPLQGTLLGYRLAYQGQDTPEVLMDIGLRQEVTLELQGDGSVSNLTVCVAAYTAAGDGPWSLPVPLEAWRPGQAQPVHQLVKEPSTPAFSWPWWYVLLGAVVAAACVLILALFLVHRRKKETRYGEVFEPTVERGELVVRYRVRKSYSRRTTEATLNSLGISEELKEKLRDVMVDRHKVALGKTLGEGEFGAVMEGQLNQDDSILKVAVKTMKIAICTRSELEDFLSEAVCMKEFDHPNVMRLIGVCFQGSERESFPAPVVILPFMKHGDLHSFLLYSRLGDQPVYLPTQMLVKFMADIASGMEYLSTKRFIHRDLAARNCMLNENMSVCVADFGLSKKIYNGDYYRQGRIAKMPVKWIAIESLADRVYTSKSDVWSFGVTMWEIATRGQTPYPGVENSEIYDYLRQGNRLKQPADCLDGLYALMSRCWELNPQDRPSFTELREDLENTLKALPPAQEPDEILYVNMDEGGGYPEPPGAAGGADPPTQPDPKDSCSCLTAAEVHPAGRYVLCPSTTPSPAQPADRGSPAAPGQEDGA
The experiment is described as follows: Inhibition of recombinant His-tagged human Axl (473 to end residues) cytoplasmic domain expressed in insect system using poly (Glu-Ala-Tyr) peptide as substrate after 5 mins in presence of ADP by fluorescence analysis.

Experiment [6] addresses Epidermal growth factor receptor (Homo sapiens) (UniProt P00533). Nature of the experiment: Binding affinity to partial length wild type human EGFR (R669 to V1011 residues) expressed in bacterial expression system assessed as fraction of unbound kinase to substrate at 10 uM after 1 hr by KinomeScan assay.
Experiment [7] shares this target. The experiment is described as follows: Binding affinity to partial length wild type human EGFR (R669 to V1011 residues) expressed in bacterial expression system assessed as fraction of unbound kinase to substrate at 1 uM after 1 hr by KinomeScan assay.
Experiment [8] deals with Tyrosine-protein kinase receptor UFO (Homo sapiens) (UniProt P30530). The experiment is described as follows: Binding affinity to human AXL (R497 to Y821 residues) expressed in bacterial expression system assessed as fraction of unbound kinase to substrate at 10 uM after 1 hr by KinomeScan assay.
Experiment [9] addresses T2, Tyrosine-protein kinase Mer (Homo sapiens) (UniProt Q12866).
T2 sequence (whole entry): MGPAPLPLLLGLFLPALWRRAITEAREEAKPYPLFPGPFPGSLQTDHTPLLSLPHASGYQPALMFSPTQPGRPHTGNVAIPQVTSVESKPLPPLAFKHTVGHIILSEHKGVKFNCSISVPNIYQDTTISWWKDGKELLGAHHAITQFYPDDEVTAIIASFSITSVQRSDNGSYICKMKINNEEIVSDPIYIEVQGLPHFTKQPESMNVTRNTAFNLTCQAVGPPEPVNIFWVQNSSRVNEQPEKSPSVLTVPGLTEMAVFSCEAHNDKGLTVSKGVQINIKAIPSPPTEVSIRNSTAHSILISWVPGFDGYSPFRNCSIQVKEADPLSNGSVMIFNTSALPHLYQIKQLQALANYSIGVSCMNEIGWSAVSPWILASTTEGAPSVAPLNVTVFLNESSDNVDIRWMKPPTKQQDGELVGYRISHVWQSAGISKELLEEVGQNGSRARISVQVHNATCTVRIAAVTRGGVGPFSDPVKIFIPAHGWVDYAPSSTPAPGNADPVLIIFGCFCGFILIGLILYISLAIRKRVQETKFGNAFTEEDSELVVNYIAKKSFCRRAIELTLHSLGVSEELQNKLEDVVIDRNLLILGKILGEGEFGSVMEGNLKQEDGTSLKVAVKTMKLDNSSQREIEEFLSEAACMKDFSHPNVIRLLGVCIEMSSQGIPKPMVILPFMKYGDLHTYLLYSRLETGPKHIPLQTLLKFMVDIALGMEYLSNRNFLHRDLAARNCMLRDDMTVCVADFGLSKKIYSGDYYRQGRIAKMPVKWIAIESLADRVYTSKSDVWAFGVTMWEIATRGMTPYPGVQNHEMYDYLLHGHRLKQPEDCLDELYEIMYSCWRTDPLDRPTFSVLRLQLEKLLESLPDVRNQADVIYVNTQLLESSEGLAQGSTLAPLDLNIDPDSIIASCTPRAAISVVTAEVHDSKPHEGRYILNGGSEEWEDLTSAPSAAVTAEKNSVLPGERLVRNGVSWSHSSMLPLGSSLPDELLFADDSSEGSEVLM
The experiment is described as follows: Binding affinity to wild-type partial length human MER (R557 to L884 residues) expressed in bacterial expression system assessed as fraction of unbound kinase to substrate at 0.1 uM after 1 hr by KinomeScan assay.

Experiment [10] concerns the target T2, Tyrosine-protein kinase Mer (Homo sapiens). Nature of the experiment: Binding affinity to wild-type partial length human MER (R557 to L884 residues) expressed in bacterial expression system assessed as fraction of unbound kinase to substrate at 10 uM after 1 hr by KinomeScan assay.
For the next experiment, the system named is RT-112. Nature of the experiment: Antiproliferative activity against human RT112 cells after 72 hrs by CellTiter-Glo assay. It is filed as functional, cell-based.
The species entered for the next experiment is Homo sapiens. Nature of the experiment: Antiproliferative activity against human MGHU3 cells after 72 hrs by CellTiter-Glo assay. It is filed as functional, cell-based. For orientation: Cellular ATP, detected with luciferase, serves as a proxy for viable cell number.

The source made the active and inactive calls. The calls are words filed in the database; no cut-off is given here.

Hepatocyte growth factor receptor (Homo sapiens), sequence (P08581 whole entry, the tested form may be a part): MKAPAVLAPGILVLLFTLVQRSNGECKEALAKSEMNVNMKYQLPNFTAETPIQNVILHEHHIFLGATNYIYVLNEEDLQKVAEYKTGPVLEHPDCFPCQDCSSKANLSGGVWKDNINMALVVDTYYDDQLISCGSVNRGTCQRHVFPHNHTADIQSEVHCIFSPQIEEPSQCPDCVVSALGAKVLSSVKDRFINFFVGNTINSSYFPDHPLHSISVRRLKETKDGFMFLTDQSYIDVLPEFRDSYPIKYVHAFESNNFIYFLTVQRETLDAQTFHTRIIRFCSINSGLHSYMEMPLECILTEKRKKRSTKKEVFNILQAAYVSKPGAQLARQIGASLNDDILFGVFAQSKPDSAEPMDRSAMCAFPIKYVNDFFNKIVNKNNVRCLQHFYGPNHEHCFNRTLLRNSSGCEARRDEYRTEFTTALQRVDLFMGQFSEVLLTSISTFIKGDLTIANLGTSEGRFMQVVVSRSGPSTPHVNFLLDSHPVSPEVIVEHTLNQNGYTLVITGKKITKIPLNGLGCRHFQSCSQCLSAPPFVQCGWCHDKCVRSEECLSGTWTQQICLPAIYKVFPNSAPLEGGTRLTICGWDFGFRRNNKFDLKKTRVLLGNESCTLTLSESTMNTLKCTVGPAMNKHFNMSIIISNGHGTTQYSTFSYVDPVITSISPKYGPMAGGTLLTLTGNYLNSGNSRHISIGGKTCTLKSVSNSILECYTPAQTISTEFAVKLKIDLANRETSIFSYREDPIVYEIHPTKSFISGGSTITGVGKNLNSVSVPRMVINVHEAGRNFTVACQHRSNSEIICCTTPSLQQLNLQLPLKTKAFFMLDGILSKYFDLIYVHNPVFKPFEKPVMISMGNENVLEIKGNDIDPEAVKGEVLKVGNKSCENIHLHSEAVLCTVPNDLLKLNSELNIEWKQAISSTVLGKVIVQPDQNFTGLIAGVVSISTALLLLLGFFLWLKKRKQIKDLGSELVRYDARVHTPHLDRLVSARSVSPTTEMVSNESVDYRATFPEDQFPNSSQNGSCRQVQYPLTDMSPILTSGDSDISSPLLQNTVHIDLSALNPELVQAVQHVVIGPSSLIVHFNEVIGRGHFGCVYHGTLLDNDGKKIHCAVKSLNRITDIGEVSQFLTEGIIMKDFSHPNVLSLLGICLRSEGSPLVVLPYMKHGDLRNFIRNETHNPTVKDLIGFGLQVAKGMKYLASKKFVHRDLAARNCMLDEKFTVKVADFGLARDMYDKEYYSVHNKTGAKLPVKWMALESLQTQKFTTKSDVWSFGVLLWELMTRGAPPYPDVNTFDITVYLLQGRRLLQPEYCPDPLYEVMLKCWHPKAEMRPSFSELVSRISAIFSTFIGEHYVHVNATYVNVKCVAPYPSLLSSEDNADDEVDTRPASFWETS
Epidermal growth factor receptor (Homo sapiens), sequence (P00533 whole entry, the tested form may be a part): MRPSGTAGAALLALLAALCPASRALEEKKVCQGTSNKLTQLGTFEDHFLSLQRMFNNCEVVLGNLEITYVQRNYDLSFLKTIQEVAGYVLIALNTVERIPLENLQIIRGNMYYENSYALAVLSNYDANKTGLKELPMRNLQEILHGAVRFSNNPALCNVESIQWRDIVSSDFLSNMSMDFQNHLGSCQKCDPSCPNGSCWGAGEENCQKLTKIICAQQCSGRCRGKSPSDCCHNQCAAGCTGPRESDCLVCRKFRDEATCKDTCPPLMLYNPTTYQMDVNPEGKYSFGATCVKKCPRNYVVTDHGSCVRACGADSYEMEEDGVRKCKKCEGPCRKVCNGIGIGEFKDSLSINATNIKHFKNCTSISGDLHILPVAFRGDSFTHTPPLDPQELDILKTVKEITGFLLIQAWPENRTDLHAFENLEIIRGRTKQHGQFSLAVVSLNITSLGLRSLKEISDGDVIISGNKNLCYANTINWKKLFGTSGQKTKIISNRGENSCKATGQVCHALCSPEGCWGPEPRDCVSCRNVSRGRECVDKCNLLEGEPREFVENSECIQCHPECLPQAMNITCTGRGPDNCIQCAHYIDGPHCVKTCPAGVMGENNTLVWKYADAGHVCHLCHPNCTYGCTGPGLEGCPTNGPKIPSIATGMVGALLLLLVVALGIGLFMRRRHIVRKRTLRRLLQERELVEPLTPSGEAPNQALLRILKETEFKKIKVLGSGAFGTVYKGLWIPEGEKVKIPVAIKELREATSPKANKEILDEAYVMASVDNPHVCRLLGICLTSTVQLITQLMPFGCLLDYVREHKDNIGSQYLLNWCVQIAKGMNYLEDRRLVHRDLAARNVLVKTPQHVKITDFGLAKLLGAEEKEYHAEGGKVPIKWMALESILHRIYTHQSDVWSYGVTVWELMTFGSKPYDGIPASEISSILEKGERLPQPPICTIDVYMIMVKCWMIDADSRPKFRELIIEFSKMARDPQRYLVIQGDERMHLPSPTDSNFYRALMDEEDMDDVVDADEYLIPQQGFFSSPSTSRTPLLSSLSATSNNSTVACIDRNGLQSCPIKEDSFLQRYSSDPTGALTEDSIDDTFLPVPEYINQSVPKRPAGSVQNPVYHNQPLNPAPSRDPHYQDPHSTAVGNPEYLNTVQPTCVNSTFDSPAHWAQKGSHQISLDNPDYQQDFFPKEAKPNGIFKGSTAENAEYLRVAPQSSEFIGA
Glycogen synthase kinase-3 beta (Homo sapiens), sequence (P49841 whole entry, looked up, the tested form may be a part): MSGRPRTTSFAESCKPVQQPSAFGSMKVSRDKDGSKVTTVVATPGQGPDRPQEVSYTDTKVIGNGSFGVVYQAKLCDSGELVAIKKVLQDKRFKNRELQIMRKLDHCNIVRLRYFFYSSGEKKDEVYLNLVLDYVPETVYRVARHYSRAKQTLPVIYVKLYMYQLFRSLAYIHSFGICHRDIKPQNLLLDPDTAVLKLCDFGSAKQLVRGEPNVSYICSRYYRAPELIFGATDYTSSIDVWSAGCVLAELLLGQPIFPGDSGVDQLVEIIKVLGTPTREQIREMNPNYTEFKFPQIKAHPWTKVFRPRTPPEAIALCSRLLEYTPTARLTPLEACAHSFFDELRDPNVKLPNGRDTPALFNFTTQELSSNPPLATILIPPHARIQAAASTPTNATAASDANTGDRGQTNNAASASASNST

As for `O=C(Nc1ccc(Oc2c(Br)cnc3[nH]cnc23)c(F)c1)c1cccn(-c2ccc(F)cc2)c1=O`, the Activity is 1% in experiment [1]; 0% in experiment [2]; 12% in [3]; 0% in experiment [4]; 1% in experiment [6]; 0% in [7]. Besides, the results for the Activity in experiment [8], in [9] and in [10] were 90.4%, 4% and 98.2%, respectively. For the same compound, the IC50 in experiment [5] turned out to be 2000 nM.

As to `Cc1cnc2[nH]cnc2c1Oc1ccc(NC(=O)c2cccn(-c3ccc(F)cc3)c2=O)cc1F`, the Activity is 5% in experiment [1]; 0% in experiment [2]; 54% in experiment [3]; 2% in experiment [4]; 0% in experiment [6]; 0% in [7]. Besides, the Activity in experiment [8] stood at 90.1%; in experiment [9], 17%; in experiment [10], 99.1%. In experiment [5], the IC50 was over 100000 nM. The outcome in the experiment on RT-112 and in the experiment filed under Homo sapiens was inactive.

In the case of `O=C(Nc1ccc(Oc2ccnc3[nH]cnc23)c(F)c1)c1cccn(-c2ccc(F)cc2)c1=O`, the Activity in experiment [1] amounted to 5%; in experiment [2], 0%; in experiment [3], 83%; in experiment [4], 0%; in [6], 0%; in [7], 0%. Besides, the results for the Activity in [8], in experiment [9] and in [10] were 93.3%, 87% and 99.6%, respectively. The IC50 in experiment [5] stood at 0.77 nM. The outcome in the experiment on RT-112 and in the experiment filed under Homo sapiens was inactive.

`CC(C)c1nc2c(Oc3ccc(NC(=O)c4cccn(-c5ccc(F)cc5)c4=O)cc3F)ccnc2[nH]1`: the Activity in experiment [1] came out at 0%; in experiment [2] it was 41%; in experiment [3] it was 83%; in experiment [4], 0%; in [6] it was 8%; in experiment [7], 0%. The Activity in experiment [8] amounted to 89%; in experiment [9] it was 92.3%; in [10], 99.1%. The IC50 in experiment [5] was 70 nM. In addition, the outcome in the experiment on RT-112 and in the experiment filed under Homo sapiens was inactive.

As a reminder, the IC50 is the concentration that gives 50% inhibition.
